Tests used:
Format in all cases: functional
[1] = target: T1, Cdk-related protein kinase 6 (Plasmodium falciparum, UniProt O77239); experiment: Final concentrations were 1.5 uM ATP, 5 mM MnCl2, and 15 ug/ml PK6 in a buffer of 100 mM Tris-HCl (pH 7.5). 50 ug/mL MBP was provided as the substrate; 10 uM staurosporine was used as a control inhibitor. Incubation time was 3 hours and 40 minutes.The catalytic activity of each kinase was considered proportional to ATP consumed, as determined from measurements of residual [ATP] with the luciferase-based reagent Kinase-Glo (Promega) following incubation. Luminescence (proportional to residual [ATP]) was measured on the plate readers FLx800 (BioTek Instruments, Winooski, VT, USA) and MicroBeta2.
T1 sequence (O77239 whole entry): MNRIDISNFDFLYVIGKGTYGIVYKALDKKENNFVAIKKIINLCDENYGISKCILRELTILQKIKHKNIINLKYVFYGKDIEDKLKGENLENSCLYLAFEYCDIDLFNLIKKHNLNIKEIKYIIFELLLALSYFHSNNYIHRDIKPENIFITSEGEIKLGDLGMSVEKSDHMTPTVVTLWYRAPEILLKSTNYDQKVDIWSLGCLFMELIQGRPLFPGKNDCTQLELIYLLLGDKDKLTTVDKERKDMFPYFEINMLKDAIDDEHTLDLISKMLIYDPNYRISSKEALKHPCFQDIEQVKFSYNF

[2] = target: T2, Putative uncharacterized protein pk7 (Plasmodium falciparum, UniProt O96214); experiment: Final concentrations were 1 uM ATP, 2 mM DTT, 20 mM MgCl2, 2 mM MnCl2, 0.01% BSA, and 6 ug/ml PK7, in a buffer of 20 mM Tris-HCl (pH 7.5). The enzyme itself was the only substrate present (since autophosphorylation occurs); 100 uM 1NA-PP1 was used as a control inhibitor. Incubation time was 3 hours.
T2 sequence (O96214 whole entry): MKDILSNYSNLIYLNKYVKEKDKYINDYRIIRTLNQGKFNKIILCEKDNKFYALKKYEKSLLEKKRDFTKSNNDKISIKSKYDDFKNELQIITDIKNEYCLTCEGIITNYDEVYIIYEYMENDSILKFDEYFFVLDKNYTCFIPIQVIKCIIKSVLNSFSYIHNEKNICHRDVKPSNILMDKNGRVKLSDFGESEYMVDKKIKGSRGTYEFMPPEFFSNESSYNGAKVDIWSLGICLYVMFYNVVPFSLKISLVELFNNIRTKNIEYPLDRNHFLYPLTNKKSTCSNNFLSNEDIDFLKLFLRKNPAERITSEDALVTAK

[3] = target: T3, Mitogen-activated protein kinase (Plasmodium falciparum, UniProt Q25917); experiment: Final concentrations were 1 uM ATP, 0.5 mM DTT, 1 mM MgCl2, 0.5 mg/mL BSA, and 10 ug/ml MAP2 in a buffer of 50 mM HEPES (pH 7.0). 0.5 mg/mL histone III-S served as the substrate (13); 100 uM AMP-PNP, an ATP analog, was used as a control inhibitor. Incubation time was 4 hours.
T3 sequence (Q25917 whole entry): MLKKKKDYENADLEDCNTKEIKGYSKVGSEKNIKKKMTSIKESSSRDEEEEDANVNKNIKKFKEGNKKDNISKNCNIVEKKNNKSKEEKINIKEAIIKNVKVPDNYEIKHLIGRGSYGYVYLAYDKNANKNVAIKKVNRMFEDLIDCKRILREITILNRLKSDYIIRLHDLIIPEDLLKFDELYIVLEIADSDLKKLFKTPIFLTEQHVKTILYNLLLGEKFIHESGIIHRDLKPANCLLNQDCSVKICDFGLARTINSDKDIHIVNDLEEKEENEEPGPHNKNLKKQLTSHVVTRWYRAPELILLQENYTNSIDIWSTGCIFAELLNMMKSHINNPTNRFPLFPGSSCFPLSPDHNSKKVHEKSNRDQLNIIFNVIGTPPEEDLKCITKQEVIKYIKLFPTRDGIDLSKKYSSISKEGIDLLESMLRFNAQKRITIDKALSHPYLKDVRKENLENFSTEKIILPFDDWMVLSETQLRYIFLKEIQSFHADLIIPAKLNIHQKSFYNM

[4] = target: Calcium-dependent protein kinase 1 (Plasmodium falciparum, UniProt P62344); experiment: MMV: CDPK1 Protein kinase inhibition assay using recombinant PfCDPK1, syntide 2 peptide substrate, ATP and KinaseGlo to measure % inhibition at 1 uM MMV box compound.
[5] = target: T4, Calcium-dependent protein kinase 4 (Plasmodium falciparum (isolate 3D7), UniProt Q8IBS5); experiment: MMV: CDPK4 Protein kinase inhibition assay using recombinant PfCDPK4, syntide2 peptide substrate, ATP and KinaseGlo to measure % inhibition at 1 uM MMV box compound.
T4 sequence (Q8IBS5 whole entry): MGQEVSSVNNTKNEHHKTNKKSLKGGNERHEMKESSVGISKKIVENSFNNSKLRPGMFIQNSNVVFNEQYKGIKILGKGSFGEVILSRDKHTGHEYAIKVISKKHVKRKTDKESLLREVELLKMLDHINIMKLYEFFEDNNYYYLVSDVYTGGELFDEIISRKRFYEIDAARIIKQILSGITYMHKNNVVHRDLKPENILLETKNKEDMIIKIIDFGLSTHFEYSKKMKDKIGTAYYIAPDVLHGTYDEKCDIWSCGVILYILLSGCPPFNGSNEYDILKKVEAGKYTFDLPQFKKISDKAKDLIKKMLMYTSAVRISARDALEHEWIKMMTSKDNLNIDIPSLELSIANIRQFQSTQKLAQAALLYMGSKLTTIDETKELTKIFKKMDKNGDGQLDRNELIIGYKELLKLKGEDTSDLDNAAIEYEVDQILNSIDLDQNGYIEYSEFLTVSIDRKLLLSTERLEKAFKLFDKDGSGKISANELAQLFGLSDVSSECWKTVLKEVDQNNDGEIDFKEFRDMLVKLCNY

Proline--tRNA ligase = target: T5, Proline--tRNA ligase (Plasmodium falciparum (isolate 3D7), UniProt Q8I5R7); experiment: MMV: ProRS recombinant Plasmodium falciparum Prolyl-tRNA-synthetase, assay with yeast tRNA, ATP, and proline and 3 uM MMV malaria box compound, assay read out with kinase glo as % inhibition.
T5 sequence (Q8I5R7 whole entry): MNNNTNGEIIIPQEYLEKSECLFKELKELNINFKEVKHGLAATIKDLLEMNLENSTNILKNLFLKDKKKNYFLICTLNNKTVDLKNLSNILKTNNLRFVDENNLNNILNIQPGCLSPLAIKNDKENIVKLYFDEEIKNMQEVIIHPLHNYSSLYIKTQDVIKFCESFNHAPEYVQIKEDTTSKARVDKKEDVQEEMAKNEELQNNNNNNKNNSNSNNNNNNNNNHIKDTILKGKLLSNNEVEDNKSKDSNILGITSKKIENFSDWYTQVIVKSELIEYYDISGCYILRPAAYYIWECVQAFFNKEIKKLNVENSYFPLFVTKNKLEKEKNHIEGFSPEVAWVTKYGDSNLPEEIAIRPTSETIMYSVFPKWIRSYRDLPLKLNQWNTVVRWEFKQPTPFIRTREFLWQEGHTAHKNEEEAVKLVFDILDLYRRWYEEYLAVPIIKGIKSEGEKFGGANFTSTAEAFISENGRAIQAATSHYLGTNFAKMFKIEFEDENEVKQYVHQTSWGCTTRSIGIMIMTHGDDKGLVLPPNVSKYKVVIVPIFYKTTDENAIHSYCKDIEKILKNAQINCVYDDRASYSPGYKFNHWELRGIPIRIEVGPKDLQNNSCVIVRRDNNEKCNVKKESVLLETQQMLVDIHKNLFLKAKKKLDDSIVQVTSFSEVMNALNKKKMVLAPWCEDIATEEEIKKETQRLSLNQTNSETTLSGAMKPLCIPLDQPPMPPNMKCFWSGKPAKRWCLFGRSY

Lysine--tRNA ligase = Lysine--tRNA ligase (Plasmodium falciparum (isolate 3D7), UniProt Q8IDJ8); experiment: MMV: KRS recombinant Plasmodium falciparum Lysyl-tRNA-synthetase, assay with yeast tRNA, ATP, and lysine and 3 uM MMV malaria box compound, assay read out with kinase glo as % inhibition.
Lysine--tRNA ligase, sequence (Q8IDJ8 whole entry): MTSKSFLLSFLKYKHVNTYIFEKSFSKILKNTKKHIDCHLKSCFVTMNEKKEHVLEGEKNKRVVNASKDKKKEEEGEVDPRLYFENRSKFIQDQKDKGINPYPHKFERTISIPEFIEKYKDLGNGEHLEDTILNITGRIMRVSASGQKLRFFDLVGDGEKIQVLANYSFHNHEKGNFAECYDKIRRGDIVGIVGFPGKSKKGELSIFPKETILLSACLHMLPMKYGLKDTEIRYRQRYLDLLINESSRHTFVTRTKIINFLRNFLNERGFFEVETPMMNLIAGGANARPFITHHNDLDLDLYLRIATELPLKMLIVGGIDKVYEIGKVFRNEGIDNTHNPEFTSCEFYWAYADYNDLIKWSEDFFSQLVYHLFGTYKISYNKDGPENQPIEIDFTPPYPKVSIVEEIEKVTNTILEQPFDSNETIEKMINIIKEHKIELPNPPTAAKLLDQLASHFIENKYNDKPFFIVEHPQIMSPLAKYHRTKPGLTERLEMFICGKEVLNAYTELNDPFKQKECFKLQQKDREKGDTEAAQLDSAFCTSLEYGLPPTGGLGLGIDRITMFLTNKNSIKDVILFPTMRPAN

Calcium-dependent protein kinase 1, sequence (P62344 whole entry): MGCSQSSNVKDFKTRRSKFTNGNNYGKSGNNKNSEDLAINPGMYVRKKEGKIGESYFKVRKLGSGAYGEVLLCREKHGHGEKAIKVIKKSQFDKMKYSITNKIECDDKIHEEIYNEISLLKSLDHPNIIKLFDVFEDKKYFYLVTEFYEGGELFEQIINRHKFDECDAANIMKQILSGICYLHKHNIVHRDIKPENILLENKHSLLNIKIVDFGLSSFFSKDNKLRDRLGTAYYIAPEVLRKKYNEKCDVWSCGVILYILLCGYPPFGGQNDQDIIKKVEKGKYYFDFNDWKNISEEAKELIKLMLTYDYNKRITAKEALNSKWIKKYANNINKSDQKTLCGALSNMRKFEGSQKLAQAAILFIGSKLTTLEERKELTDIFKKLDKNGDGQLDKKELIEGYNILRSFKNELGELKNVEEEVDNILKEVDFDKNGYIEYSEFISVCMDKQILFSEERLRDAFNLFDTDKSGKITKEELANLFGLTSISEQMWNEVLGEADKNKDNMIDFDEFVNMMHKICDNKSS

SMILES | IC50 [1] | IC50 [2] | IC50 [3] | IC50 [4] | IC50 [5] | IC50 (Proline--tRNA ligase) | IC50 (Lysine--tRNA ligase)
O=C(Nc1ccccc1O)c1ccc(Oc2cccc(C(=O)Nc3ccccc3O)c2)cc1 | > 1000 nM | > 1000 nM | > 1000 nM | > 1000 nM | > 1000 nM | > 2500 nM | > 2500 nM
N=c1n(CCN2CCCCC2)c2ccccc2n1CC(O)c1cccc(Br)c1 (configuration not stated) | > 1000 nM | > 1000 nM | > 1000 nM | > 1000 nM | > 1000 nM | > 2500 nM | > 2500 nM
COc1cccc(O)c1CN1CCC2(CCCN(Cc3ccc(F)cc3)C2)C1 (configuration not stated) | > 1000 nM | > 1000 nM | > 1000 nM | > 1000 nM | > 1000 nM | > 2500 nM | > 2500 nM
COc1ccc(C(=O)Nc2ccc3nc(N4CCCCC4)cc(C)c3c2)cc1OC | > 1000 nM | > 1000 nM | > 1000 nM | > 1000 nM | > 1000 nM | > 2500 nM | > 2500 nM
FC(F)(F)c1ccc(Nc2nnnc3ccccc23)cc1 | > 1000 nM | > 1000 nM | > 1000 nM | > 1000 nM | > 1000 nM | > 2500 nM | > 2500 nM
COc1cccc(NC(=O)Cn2c(C)c(C#N)c3ccccc32)c1 | > 1000 nM | > 1000 nM | > 1000 nM | > 1000 nM | > 1000 nM | > 2500 nM | > 2500 nM
CC(C)=CCN1CCC(C(=O)Nc2ccc(-c3nc4ccccc4[nH]3)cc2)CC1 | > 1000 nM | > 1000 nM | > 1000 nM | > 1000 nM | > 1000 nM | > 2500 nM | > 2500 nM
FC(F)(F)c1cccc(Nc2nc(-c3ccccc3)nc3ncccc23)c1 | > 1000 nM | > 1000 nM | > 1000 nM | > 1000 nM | > 1000 nM | > 2500 nM | > 2500 nM
CCN1CCN(c2cc(C)c3cc(NC(=O)c4ccc(OC)c(OC)c4)ccc3n2)CC1 | > 1000 nM | > 1000 nM | > 1000 nM | > 1000 nM | > 1000 nM | > 2500 nM | > 2500 nM
COc1ccc(CNC2CCN(c3ccc(NC(=O)c4cccc(Cl)c4)cc3)CC2)cc1OC | > 1000 nM | > 1000 nM | > 1000 nM | > 1000 nM | > 1000 nM | > 2500 nM | > 2500 nM
CC(NCc1ccccc1)c1cc(Cl)ccc1O (configuration not stated) | > 1000 nM | > 1000 nM | > 1000 nM | > 1000 nM | > 1000 nM | > 2500 nM | > 2500 nM
COc1ccc(C(=O)Nc2ccc(Cl)cc2C(=O)Nc2ccncc2)cc1 | > 1000 nM | > 1000 nM | > 1000 nM | > 1000 nM | > 1000 nM | > 2500 nM | > 2500 nM
CN(C)c1ccc(-c2nc3cc(N)ccc3[nH]2)cc1 | > 1000 nM | > 1000 nM | > 1000 nM | > 1000 nM | > 1000 nM | > 2500 nM | > 2500 nM
Cc1c(C)n(Cc2ccc(F)cc2)c2ccc(C(=O)NCc3ccco3)cc12 | > 1000 nM | > 1000 nM | > 1000 nM | > 1000 nM | > 1000 nM | > 2500 nM | > 2500 nM
CCN(CC)c1ccc(NC(=O)c2cccs2)cc1 | > 1000 nM | > 1000 nM | > 1000 nM | > 1000 nM | > 1000 nM | > 2500 nM | > 2500 nM
O=C(Nc1ccsc1C(=O)NC1CCCCC1)c1ccc(F)cc1 | > 1000 nM | > 1000 nM | > 1000 nM | > 1000 nM | > 1000 nM | > 2500 nM | > 2500 nM
O=C(Nc1cccc(C(F)(F)F)c1)c1cc(Cl)ccc1O | > 1000 nM | > 1000 nM | > 1000 nM | > 1000 nM | > 1000 nM | > 2500 nM | > 2500 nM
CCN(CC)c1cc(C)c2cc(NC(=O)c3cccc(OC)c3)ccc2n1 | > 1000 nM | > 1000 nM | > 1000 nM | > 1000 nM | > 1000 nM | > 2500 nM | > 2500 nM
CCOc1ccc(-c2nc(NC(=O)c3cccc(S(C)(=O)=O)c3)sc2C)cc1 | > 1000 nM | > 1000 nM | > 1000 nM | > 1000 nM | > 1000 nM | > 2500 nM | > 2500 nM
COc1ccccc1N1CCN(C(CNS(=O)(=O)c2ccc(Cl)cc2)c2cccnc2)CC1 (configuration not stated) | > 1000 nM | > 1000 nM | > 1000 nM | > 1000 nM | > 1000 nM | > 2500 nM | > 2500 nM
C=C(C)CCC(C)N1CCC(N2CCC(C(=O)NCCc3ccccc3)CC2)CC1 (configuration not stated) | > 1000 nM | > 1000 nM | > 1000 nM | > 1000 nM | > 1000 nM | > 2500 nM | > 2500 nM

Reference: ChEMBL document CHEMBL3301562, “MMV Box screening against Plasmodium falciparum protein kinases and aminoacyl tRNA synthetases”
